Measurements as given in US10350199B2, “3-(1h-pyrrolo[2,3-b]pyridin-2-yl)-1h-indazoles and therapeutic uses thereof” (Samumed, LLC, priority 2015, dated 2019).

Experiments:
Type in all cases: cell-based
[1] = tested on: primary human mesenchymal stem cells (hMSCs); assay: Induction of chondrogenesis in human mesenchymal stem cells (nodule area, Rhodamine B/Nile Red); details: hMSC chondrogenesis, relative to TGF-β3 (10 ng/mL) positive control, read-out: Max. Activity as % TGF-β3 activity
How it was run: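 Primary hMSCs at passage 3-6 were treated with compound; nodule area per well was normalized to the mean of 3 DMSO wells, averaged over 2-3 replicates, and the concentration giving 50% chondrogenesis relative to TGF-β3 control, plus maximum activity and its dose, was derived.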

[2] = tested on: primary human fibroblasts derived from IPF patients (LL29 cells) treated with TGF-β1; assay: Inhibition of the fibrotic process: αSMA staining in TGF-β1 treated LL29 fibroblasts; details: Fibroblast; for EC50: 96 h, LL29 cells, TGF-β1 20 ng/mL, 4 days, % αSMA positive cells; for inhibition at 10 µM: read-out: percent inhibition at 10 μM
How it was run: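 IPF-patient-derived LL29 lung fibroblasts in F12 with 1% FBS, stimulated with TGF-β1 alongside compound; TGF-β1 plus DMSO wells served as controls. After 4 days, nuclei stained with 1 μM SYTOX green for 30 min at room temperature, alongside αSMA staining.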

SW480 colon cancer cells = assay: Cell viability assay (CellTiter-Blue), SW480 cells, four days; details: Homo sapiens; for EC50: 96 h, SW480 cell viability, four days, CellTiter-Blue; for inhibition at 10 µM: SW480, read-out: percent inhibition at 10 μM
How it was run: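 Fluorescence from resazurin reduced to resorufin by metabolically active cells was the read-out, taken after ~3 h with CellTiter-Blue.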

[3] = tested on: Wnt activity (Sp5-Luc reporter, SW480 colon carcinoma cells); assay: Wnt activity screening assay, Sp5-Luc reporter gene in SW480 cells; details: Homo sapiens; for inhibition at 10 µM: SW480, read-out: percent inhibition at 10 μM; for EC50: Sp5-Luc reporter, SW480 cells, overnight incubation
How it was run: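 SW480 cells stably transduced with lentiviral Sp5 promoter (eight TCF/LEF sites)-firefly luciferase, plated at 4,000 cells/well in 1% FBS medium and incubated overnight at 37° C. Luminescence read after BrightGlo addition, normalized to DMSO-only cells; EC50 from four-parameter variable-slope nonlinear regression.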

[4] = tested on: IL-6 (THP-1 human monocyte cell line); assay: IL-6 inhibition in LPS-stimulated THP-1 cells (HTRF); details: for EC50: IL-6 inhibition, LPS-stimulated THP-1 cells, HTRF
How it was run: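 THP-1 cells kept 24 h in 1% FBS medium, treated 2 h at 37 °C, then stimulated with 500 ng/mL LPS for another 22 h. IL-6 measured by HTRF as the 665/620 nm ratio; EC50 from a four-parameter fit normalized to DMSO controls.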

SMILES | Emax [1] | EC50 [2] | EC50 (SW480 colon cancer cells) | inhibition at 10 µM (SW480 colon cancer cells) | inhibition at 10 µM [3] | EC50 [3] | EC50 [4] | inhibition at 10 µM ([4]; THP-1, read-out: percentage in parentheses beside EC50 >10 (IL-6 inhibition)) | inhibition at 10 µM [2]
CN(C)Cc1cncc(-c2ccc3[nH]nc(-c4cc5c(-c6cccc(F)c6)ccnc5[nH]4)c3c2F)c1 [Compound 994, 1-(5-(4-Fluoro-3-(4-(3-fluorophenyl)-1H-pyrrolo[2,3-b]pyridin-2-yl)-1H-indazol-5-yl)pyridin-3-yl)-N,N-dimethylmethanamine] | 21% | 4.9 µM | > 10 µM | 34.7% | 20.8% | > 10 µM | > 10 µM | 36.6% | 
CCNCc1cncc(-c2ccc3[nH]nc(-c4cc5c(-c6cccnc6)ccnc5[nH]4)c3c2)c1 [Compound 90, N-((5-(3-(4-(Pyridin-3-yl)-1H-pyrrolo[2,3-b]pyridin-2-yl)-1H-indazol-5-yl)pyridin-3-yl)methyl)ethanamine] | 29% | > 10 µM | > 10 µM | 31.3% | 28.6% | > 10 µM | 0.561 µM |  | 0%
CC(C)(C)CC(=O)Nc1cncc(-c2ccc3[nH]nc(-c4cc5c(-c6ccoc6)ccnc5[nH]4)c3c2)c1 [Compound 324, N-(5-(3-(4-(Furan-3-yl)-1H-pyrrolo[2,3-b]pyridin-2-yl)-1H-indazol-5-yl)pyridin-3-yl)-3,3-dimethylbutanamide] | 21% | > 10 µM | 9.2 µM |  |  | 0.89 µM | 0.694 µM |  | 0%
c1cc(N2CCCCC2)c2cc(-c3n[nH]c4ccc(-c5cncc(CN6CCCC6)c5)cc34)[nH]c2n1 [Compound 182, 3-(4-(Piperidin-1-yl)-1H-pyrrolo[2,3-b]pyridin-2-yl)-5-(5-(pyrrolidin-1-ylmethyl)pyridin-3-yl)-1H-indazole] | 21% | 7.76 µM | 4.08 µM |  | 36% | > 10 µM | 0.315 µM |  | 
